In ChEMBL document CHEMBL3286349 (Bioorg Med Chem Lett, 2014):
pEC50, pKd: −log10 of the molar value. Values belong to the compound of their own block, whether it stands above or below them. Activity calls are given as the source filed them. No cut-off for these calls is given here. Residues, ends and D or L forms follow the SMILES beside them.

Legend:
[1] = biological target: T1, Peroxisome proliferator-activated receptor alpha (Rattus norvegicus) (UniProt P37230); assay: Agonist activity at PPARalpha in lipid loaded rat HII4E cells assessed as induction of fatty acid uptake at 1 uM after 24 hrs by flow cytometry analysis relative to control; format: cell-based
T1 sequence (whole entry): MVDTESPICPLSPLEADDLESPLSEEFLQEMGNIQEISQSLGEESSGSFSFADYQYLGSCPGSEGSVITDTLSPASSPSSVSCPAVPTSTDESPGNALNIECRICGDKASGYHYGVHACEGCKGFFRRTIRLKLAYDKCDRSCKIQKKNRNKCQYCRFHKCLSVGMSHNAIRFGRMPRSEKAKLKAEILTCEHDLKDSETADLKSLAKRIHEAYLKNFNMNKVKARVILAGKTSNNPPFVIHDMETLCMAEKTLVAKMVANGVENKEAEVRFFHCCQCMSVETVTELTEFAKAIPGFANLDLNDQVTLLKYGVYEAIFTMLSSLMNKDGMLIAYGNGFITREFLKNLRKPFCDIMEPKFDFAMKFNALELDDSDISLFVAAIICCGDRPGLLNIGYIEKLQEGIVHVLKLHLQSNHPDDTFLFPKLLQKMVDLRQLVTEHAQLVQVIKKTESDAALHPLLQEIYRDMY

[2] = Reduction of intracellular triglyceride level in lipid loaded rat HII4E cells expressing PPARalpha siRNA at 10 to 500 uM after 24 hrs; format: functional, cell-based
[3] = biological target: T1, Peroxisome proliferator-activated receptor alpha (Rattus norvegicus); assay: Agonist activity at PPARalpha in lipid loaded rat HII4E cells assessed as reduction of intracellular triglyceride level at 500 uM after 24 hrs relative to control; format: cell-based; set-up: scale not given: the % may be the effect or the level left
[4] = biological target: T1, Peroxisome proliferator-activated receptor alpha (Rattus norvegicus); assay: Agonist activity at PPARalpha in lipid loaded rat HII4E cells assessed as reduction of intracellular cholesterol level after 24 hrs; format: cell-based
[5] = Reduction of intracellular triglyceride level in lipid loaded rat HII4E cells expressing PPARgamma siRNA after 24 hrs; format: functional, cell-based
[6] = biological target: T2, Peroxisome proliferator-activated receptor alpha (Homo sapiens) (UniProt Q07869); assay: Agonist activity at PPARalpha (unknown origin) expressed in CHOK1 cells assessed as induction of transactivation activity at 500 uM after 24 hrs by luciferase reporter gene assay relative to control; format: cell-based; conditions: CHO-K1
T2 sequence (whole entry): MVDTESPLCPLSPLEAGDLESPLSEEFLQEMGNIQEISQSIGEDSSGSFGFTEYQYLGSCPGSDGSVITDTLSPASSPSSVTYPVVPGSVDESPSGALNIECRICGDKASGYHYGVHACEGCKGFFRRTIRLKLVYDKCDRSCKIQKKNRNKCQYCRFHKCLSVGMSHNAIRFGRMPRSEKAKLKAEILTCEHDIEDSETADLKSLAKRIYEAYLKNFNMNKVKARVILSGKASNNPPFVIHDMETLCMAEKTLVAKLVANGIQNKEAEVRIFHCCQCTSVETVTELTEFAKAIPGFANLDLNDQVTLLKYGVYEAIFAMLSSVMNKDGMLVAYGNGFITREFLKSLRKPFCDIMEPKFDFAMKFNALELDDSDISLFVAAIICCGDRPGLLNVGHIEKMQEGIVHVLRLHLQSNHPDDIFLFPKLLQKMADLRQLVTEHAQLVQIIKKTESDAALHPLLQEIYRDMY

[7] = biological target: T1, Peroxisome proliferator-activated receptor alpha (Rattus norvegicus); assay: Agonist activity at PPARalpha in lipid loaded rat HII4E cells assessed as induction of transcriptional activity at 500 uM after 24 hrs by qPCR analysis relative to control; format: cell-based
[8] = biological target: T3, Peroxisome proliferator-activated receptor alpha (Homo sapiens, UniProt Q07869); assay: Agonist activity at PPARalpha LBD (unknown origin) assessed as induction of PGC1alpha co-activator activity by TR-FRET analysis
T3 sequence (Q07869 whole entry): T2 sequence (whole entry)

[9] = Reduction of intracellular cholesterol level in lipid loaded rat HII4E cells expressing PPARalpha siRNA at 10 to 500 uM after 24 hrs; format: functional, cell-based
[10] = biological target: T2, Peroxisome proliferator-activated receptor alpha (Homo sapiens); assay: Agonist activity at PPARalpha (unknown origin) expressed in CHOK1 cells assessed as induction of transactivation activity at 100 uM after 24 hrs by luciferase reporter gene assay relative to control; format: cell-based; conditions: CHO-K1
[11] = biological target: T1, Peroxisome proliferator-activated receptor alpha (Rattus norvegicus); assay: Agonist activity at PPARalpha in lipid loaded rat HII4E cells assessed as increase of FATP4 gene expression at 500 uM after 24 hrs by qPCR analysis relative to control; format: cell-based
[12] = biological target: T1, Peroxisome proliferator-activated receptor alpha (Rattus norvegicus); assay: Agonist activity at PPARalpha in lipid loaded rat HII4E cells assessed as increase of acyl-CoA synthetase gene expression at 500 uM after 24 hrs by qPCR analysis relative to control; format: cell-based
[13] = biological target: T1, Peroxisome proliferator-activated receptor alpha (Rattus norvegicus); assay: Agonist activity at PPARalpha in lipid loaded rat HII4E cells assessed as reduction of intracellular cholesterol level at 500 uM after 24 hrs relative to control; format: cell-based; set-up: scale not given: the % may be the effect or the level left
[14] = biological target: T1, Peroxisome proliferator-activated receptor alpha (Rattus norvegicus); assay: Agonist activity at PPARalpha in lipid loaded rat HII4E cells assessed as induction of transcriptional activity at 100 uM after 24 hrs by qPCR analysis relative to control; format: cell-based
[15] = Reduction of intracellular cholesterol level in lipid loaded rat HII4E cells expressing PPARgamma siRNA after 24 hrs; format: functional, cell-based
[16] = biological target: T1, Peroxisome proliferator-activated receptor alpha (Rattus norvegicus); assay: Agonist activity at PPARalpha in lipid loaded rat HII4E cells assessed as increase of FATP4 gene expression at 100 uM after 24 hrs by qPCR analysis relative to control; format: cell-based
[17] = biological target: T1, Peroxisome proliferator-activated receptor alpha (Rattus norvegicus); assay: Agonist activity at PPARalpha in lipid loaded rat HII4E cells assessed as increase of CPT1 gene expression at 500 uM after 24 hrs by qPCR analysis relative to control; format: cell-based
[18] = biological target: T1, Peroxisome proliferator-activated receptor alpha (Rattus norvegicus); assay: Agonist activity at PPARalpha in lipid loaded rat HII4E cells assessed as induction of fatty acid uptake at 100 to 500 uM after 24 hrs by flow cytometry analysis relative to control; format: cell-based
[19] = biological target: T1, Peroxisome proliferator-activated receptor alpha (Rattus norvegicus); assay: Agonist activity at PPARalpha in lipid loaded rat HII4E cells assessed as increase of ACOX gene expression at 500 uM after 24 hrs by qPCR analysis relative to control; format: cell-based
[20] = biological target: T1, Peroxisome proliferator-activated receptor alpha (Rattus norvegicus); assay: Agonist activity at PPARalpha in lipid loaded rat HII4E cells assessed as increase of acyl-CoA synthetase gene expression at 100 uM after 24 hrs by qPCR analysis relative to control; format: cell-based
[21] = biological target: T3, Peroxisome proliferator-activated receptor alpha; assay: Binding affinity to PPARalpha LBD (unknown origin) by surface plasmon resonance assay
[22] = biological target: T1, Peroxisome proliferator-activated receptor alpha (Rattus norvegicus); assay: Agonist activity at PPARalpha in lipid loaded rat HII4E cells assessed as reduction of intracellular triglyceride level at 100 uM after 24 hrs relative to control; format: cell-based; set-up: scale not given: the % may be the effect or the level left
[23] = biological target: T1, Peroxisome proliferator-activated receptor alpha (Rattus norvegicus); assay: Agonist activity at PPARalpha in lipid loaded rat HII4E cells assessed as reduction of intracellular cholesterol level at 100 uM after 24 hrs relative to control; format: cell-based; set-up: scale not given: the % may be the effect or the level left

- Activity [1]: Active
Structure (SMILES): CC(C)(Sc1ccc(CCN(CCCCC2CCCCC2)C(=O)NC2CCCCC2)cc1)C(=O)O

- Activity [3]: 16%
- Activity [4]: Dose-dependent effect
- Activity [6]: 62%
- fold change (FC) [7]: 1.9
- pEC50 [8]: 4.08
- Activity [10]: 53%
- fold change (FC) [11]: 1.7
- fold change (FC) [12]: 1.5
- Activity [13]: 21%
- fold change (FC) [14]: 1.8
- fold change (FC) [16]: 1.6
- fold change (FC) [17]: 1.6
- fold change (FC) [18]: 1.2
- fold change (FC) [19]: 1.4
- fold change (FC) [20]: 1.4
- pKd [21]: 3.92
- Activity [22]: 14%
- Activity [23]: 14%
Structure (SMILES): N[C@@H](Cc1c[nH]c2ccccc12)C(=O)N[C@@H](CCC(=O)O)C(=O)O (H-Trp-Glu-OH)
- Activity [2]: inactive
- Activity [5]: Dose-dependent effect
- Activity [9]: inactive
- Activity [15]: Dose-dependent effect
